# Data: US20060128792A1, “Deguelin as a chemopreventive agent for lung cancer” (priority 2002, published 2006)
# Several values for one entry are separate records, joined by “and”; a condition that tells them apart may be missing. Equal entries are not always repeated.
# Columns and labels:
# Type in all cases: cell-based
# NSCLC cells = assay: MTT assay, growth inhibition of NSCLC cells by deguelin and deguelin derivatives (Table 2, FIG. 7); conditions: 0.01-1 μM, 3 days
# A549 = assay: MTT assay, growth inhibition by deguelin or deguelin derivatives; conditions: 3 days
# H1299 = assay: as above; conditions: 3 days
# H322 = assay: as above; conditions: 3 days
# H596 = assay: as above; conditions: 3 days
# H460 = assay: as above; conditions: 3 days
# H358 = assay: as above; conditions: 3 days
molecule,measurement,setting,value
bromorot-2′-enoic acid,"inhibiting cell growth in NSCLC cells, ranking among the derivatives",NSCLC cells,most effective
"COc1cc2c(cc1OC)-c1c(oc3c4c(ccc3c1=O)OC(C)(C)C=C4)CO2 [7a,13a-dehydrodeguelin]","MTT assay reading, Average","A549; A549, 0.01 μM",1.2597
same,"MTT assay reading, individual replicate","A549; A549, 0.01 μM",1.182 and 1.147 and 1.307 and 1.208 and 1.279 and 1.361 and 1.334
same,"MTT assay reading, Average","A549; A549, 0.1 μM",1.1816
same,"MTT assay reading, individual replicate","A549; A549, 0.1 μM",1.073 and 1.17 and 1.208 and 1.308 and 1.211 and 1.152 and 1.149
same,"MTT assay reading, Average","A549; A549, 0.5 μM",1.0421
same,"MTT assay reading, individual replicate","A549; A549, 0.5 μM",1.107 and 1.032 and 0.931 and 0.964 and 1.036 and 1.104 and 1.121
same,"MTT assay reading, Average","A549; A549, 1 μM",0.9223
same,"MTT assay reading, individual replicate","A549; A549, 1 μM",0.97 and 0.971 and 1.014 and 0.89 and 0.862 and 0.886 and 0.863
same,% control,"H1299; H1299, 0.01 μM",0.93%
same,"MTT assay reading, Average","H1299; H1299, 0.01 μM",1.3179
same,"MTT assay reading, individual replicate","H1299; H1299, 0.01 μM",1.311 and 1.344 and 1.402 and 1.302 and 1.286 and 1.293 and 1.287
same,% control,"H1299; H1299, 0.1 μM",0.87%
same,"MTT assay reading, Average","H1299; H1299, 0.1 μM",1.2374
same,"MTT assay reading, individual replicate","H1299; H1299, 0.1 μM",1.228 and 1.331 and 1.318 and 1.141 and 1.196 and 1.153 and 1.295
same,% control,"H1299; H1299, 0.5 μM",0.69%
same,"MTT assay reading, Average","H1299; H1299, 0.5 μM",0.9707
same,"MTT assay reading, individual replicate","H1299; H1299, 0.5 μM",1.033 and 1.017 and 1.106 and 0.913 and 0.874 and 0.947 and 0.905
same,% control,"H1299; H1299, 1 μM",0.60%
same,"MTT assay reading, Average","H1299; H1299, 1 μM",0.8452
same,"MTT assay reading, individual replicate","H1299; H1299, 1 μM",0.769 and 0.838 and 0.938 and 0.813 and 0.837 and 0.876
same,"MTT assay reading, Average","H322; H322, 0.01 μM",1.0041
same,"MTT assay reading, individual replicate","H322; H322, 0.01 μM",0.921 and 1.08 and 1.05 and 1.022 and 0.888 and 0.926 and 1.142
same,"MTT assay reading, Average","H322; H322, 0.1 μM",1.0019
same,"MTT assay reading, individual replicate","H322; H322, 0.1 μM",1.04 and 1.033 and 0.923 and 1.031 and 1.09 and 0.883 and 1.013
same,"MTT assay reading, Average","H322; H322, 0.5 μM",0.866
same,"MTT assay reading, individual replicate","H322; H322, 0.5 μM",0.837 and 0.8 and 0.975 and 0.926 and 0.806 and 0.811 and 0.907
same,"MTT assay reading, Average","H322; H322, 1 μM",0.8379
same,"MTT assay reading, individual replicate","H322; H322, 1 μM",0.841 and 0.799 and 0.822 and 0.932 and 0.793 and 0.709 and 0.969
same,"MTT assay reading, Average","H596; H596, 0.01 μM",1.4338
same,"MTT assay reading, individual replicate","H596; H596, 0.01 μM",1.408 and 1.317 and 1.526 and 1.458 and 1.495 and 1.399
same,"MTT assay reading, Average","H596; H596, 0.1 μM",1.2779
same,"MTT assay reading, individual replicate","H596; H596, 0.1 μM",1.356 and 1.281 and 1.153 and 1.273 and 1.246 and 1.358 and 1.278
same,"MTT assay reading, Average","H596; H596, 0.5 μM",1.2116
same,"MTT assay reading, individual replicate","H596; H596, 0.5 μM",1.19 and 1.194 and 1.071 and 1.133 and 1.285 and 1.365 and 1.243
same,"MTT assay reading, Average","H596; H596, 1 μM",1.0616
same,"MTT assay reading, individual replicate","H596; H596, 1 μM",1.202 and 1.183 and 1.019 and 1.159 and 1.07 and 0.899 (2×)
same,% control,"H460; H460, 0.01 μM",0.86%
same,"MTT assay reading, Average","H460; H460, 0.01 μM",1.4779
same,"MTT assay reading, individual replicate","H460; H460, 0.01 μM",1.531 and 1.338 and 1.635 and 1.354 and 1.477 and 1.476 and 1.534
same,% control,"H460; H460, 0.1 μM",0.88%
same,"MTT assay reading, Average","H460; H460, 0.1 μM",1.5079
same,"MTT assay reading, individual replicate","H460; H460, 0.1 μM",1.473 and 1.427 and 1.518 and 1.504 and 1.524 and 1.575 and 1.534
same,% control,"H460; H460, 0.5 μM",0.78%
same,"MTT assay reading, Average","H460; H460, 0.5 μM",1.3309
same,"MTT assay reading, individual replicate","H460; H460, 0.5 μM",1.297 and 1.323 and 1.388 and 1.304 and 1.362 and 1.335 and 1.307
same,% control,"H460; H460, 1 μM",0.64%
same,"MTT assay reading, Average","H460; H460, 1 μM",1.1053
same,"MTT assay reading, individual replicate","H460; H460, 1 μM",1.191 and 1.216 and 1.047 and 1.094 and 0.946 and 1.108 and 1.135
same,"MTT assay reading, Average","H358; H358, 0.01 μM",0.7673
same,"MTT assay reading, individual replicate","H358; H358, 0.01 μM",0.79 and 0.678 and 0.647 and 0.812 and 0.791 and 0.864 and 0.789
same,"MTT assay reading, Average","H358; H358, 0.1 μM",0.769
same,"MTT assay reading, individual replicate","H358; H358, 0.1 μM",0.726 and 0.676 and 0.824 and 0.846 and 0.782 and 0.658 and 0.871
same,"MTT assay reading, Average","H358; H358, 0.5 μM",0.719
same,"MTT assay reading, individual replicate","H358; H358, 0.5 μM",0.684 and 0.6 and 0.66 and 0.739 and 0.819 and 0.753 and 0.778
same,"MTT assay reading, Average","H358; H358, 1 μM",0.6534
same,"MTT assay reading, individual replicate","H358; H358, 1 μM",0.691 and 0.548 and 0.643 and 0.706 and 0.647 and 0.656 and 0.683
